How the values were obtained:
[1] = system: osteoarthritis animal model induced by 1 mg MIA (Monosodium IodoAcetate) in synovium; test: In vivo anti-osteoarthritis efficacy test, X-ray of joint region; design: species or system rat (Sprague Dawley)
Procedure: FIG. 4 is X-ray radiographs of osteoarthritis animal model (rat) induced by treating 1 mg MIA in synovium at 8 weeks after administering the osteoarthritis composition comprising hydrophilized sulfasalazine and hyaluronic acid according to the present invention of 0 to 8 mM. After inducing an osteoarthritis animal model by treating 1 mg MIA (Monosodium IodoAcetate) to synovium of 8 week-old rat (Sprague Dawley), after 1 week, mixtures prepared in Example 1 was administered by intraarticular injection.

[2] = taken orally, maximum dose of 4 g/day; cited from earlier work
[3] = as component of synovial fluid; cited from earlier work

Compound	anti-osteoarthritis effect ([1]; less than 2 mM (0.08 w/v %))	osteoarthritis treatment effect ([1]; low concentration, for example 1 mM)	blood concentration [2] [ng/mL]	half life [3]
O=C(O)c1cc(/N=N/c2ccc(S(=O)(=O)Nc3ccccn3)cc2)ccc1O [sulfasalazine]	anti-osteoarthritis effect could not be shown	could not show an effective level of osteoarthritis treatment effect	12000	
hyaluronic acid				more than 13 hours
